Our source for the IC50 and melting point values is patent US20140135327A1, “N- (2 -AMINOPHENYL) BENZAMIDE DERIVATIVES AS HISTONE DEACETYLASE INHIBITORS” (CANCER RESEARCH TECHNOLOGY LIMITED, priority 2011, published 2014).

Where only a bound is given, the exact number is not on record here.

In one data set the target is HDAC 3 (Homo sapiens, UniProt O15379). Description: Caliper HDAC inhibitor profiling assay (microfluidic mobility-shift), HDAC 3. Particulars: 1 hour at room temperature, read-out: IC50 (μM) HDAC3. It counts as biochemical. Here is the method:
(§1) The activity of the compounds of the invention against HDAC 3 (Class I) and HDAC 6 (Class II) can be determined using the Caliper Life Sciences HDAC inhibitor profiling assay, which utilises microfluidic mobility-shift detection.
(§2) Reaction buffer: 25 mM Tris/Cl, pH 8.0, 137 mM NaCl, 2.7 mM KCl, 1 mM MgCl2, 0.1 mg/ml BSA (fatty acid free).
(§3) Stop Buffer: 100 mM HEPES, pH 7.5, 10 mM EDTA, 0.04% Brij-35, 0.25% CR-3, and 2.5 μM Trichostatin A.
(§4) Stopped reactions were assembled in microtiter plate wells by adding 1 μL of the inhibitor compound in DMSO, 15 μL 2× Enzyme, and 15 μL 2× peptide. The reactions were incubated for 1 hour at room temperature, stopped with the addition of 45 μL Stop Solution, and read on the LabChip EZ Reader®. The curves were fit with sigmoidal dose response algorithm using GraphPad Prism.

Another data set concerns the target T1, HDAC 6 (Homo sapiens, UniProt Q9UBN7).
T1 sequence (Q9UBN7 1-1215): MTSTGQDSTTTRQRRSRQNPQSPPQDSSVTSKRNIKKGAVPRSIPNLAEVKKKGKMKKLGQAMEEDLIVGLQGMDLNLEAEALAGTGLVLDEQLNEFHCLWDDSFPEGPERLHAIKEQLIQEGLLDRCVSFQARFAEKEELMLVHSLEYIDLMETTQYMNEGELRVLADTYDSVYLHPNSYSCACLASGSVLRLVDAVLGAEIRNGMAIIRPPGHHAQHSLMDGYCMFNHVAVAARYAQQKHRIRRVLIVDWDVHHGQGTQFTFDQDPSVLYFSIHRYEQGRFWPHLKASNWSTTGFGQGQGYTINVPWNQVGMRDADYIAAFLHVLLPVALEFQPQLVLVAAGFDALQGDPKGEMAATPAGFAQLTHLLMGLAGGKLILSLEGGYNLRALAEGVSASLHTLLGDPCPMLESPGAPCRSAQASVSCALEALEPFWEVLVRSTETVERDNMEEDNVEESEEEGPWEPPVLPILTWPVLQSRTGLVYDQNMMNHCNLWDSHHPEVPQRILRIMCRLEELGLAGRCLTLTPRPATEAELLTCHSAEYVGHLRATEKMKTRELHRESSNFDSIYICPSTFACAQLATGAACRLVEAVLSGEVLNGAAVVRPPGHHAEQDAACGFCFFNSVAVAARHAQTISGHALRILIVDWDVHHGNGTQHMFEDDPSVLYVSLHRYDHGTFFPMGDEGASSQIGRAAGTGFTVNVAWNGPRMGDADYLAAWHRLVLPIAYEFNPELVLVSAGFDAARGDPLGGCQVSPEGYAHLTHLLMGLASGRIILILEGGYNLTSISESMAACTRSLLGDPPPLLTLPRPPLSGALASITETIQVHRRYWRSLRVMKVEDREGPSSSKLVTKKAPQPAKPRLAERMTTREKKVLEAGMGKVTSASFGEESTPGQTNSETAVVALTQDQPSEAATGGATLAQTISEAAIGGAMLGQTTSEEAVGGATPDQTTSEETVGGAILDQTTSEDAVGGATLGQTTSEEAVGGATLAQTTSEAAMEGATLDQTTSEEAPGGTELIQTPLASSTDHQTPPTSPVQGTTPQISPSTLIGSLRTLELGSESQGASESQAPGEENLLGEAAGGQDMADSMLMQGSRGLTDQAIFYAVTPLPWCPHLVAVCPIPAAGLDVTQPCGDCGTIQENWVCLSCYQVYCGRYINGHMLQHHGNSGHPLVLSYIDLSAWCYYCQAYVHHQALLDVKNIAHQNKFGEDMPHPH
The experiment in a line: Caliper HDAC inhibitor profiling assay (microfluidic mobility-shift), HDAC 6. It counts as biochemical. Particulars: 1 hour at room temperature, read-out: IC50 (μM) HDAC6. On the procedure: as §1, §2, §3, §4

HDAC 3, sequence (O15379 whole entry, species assumed): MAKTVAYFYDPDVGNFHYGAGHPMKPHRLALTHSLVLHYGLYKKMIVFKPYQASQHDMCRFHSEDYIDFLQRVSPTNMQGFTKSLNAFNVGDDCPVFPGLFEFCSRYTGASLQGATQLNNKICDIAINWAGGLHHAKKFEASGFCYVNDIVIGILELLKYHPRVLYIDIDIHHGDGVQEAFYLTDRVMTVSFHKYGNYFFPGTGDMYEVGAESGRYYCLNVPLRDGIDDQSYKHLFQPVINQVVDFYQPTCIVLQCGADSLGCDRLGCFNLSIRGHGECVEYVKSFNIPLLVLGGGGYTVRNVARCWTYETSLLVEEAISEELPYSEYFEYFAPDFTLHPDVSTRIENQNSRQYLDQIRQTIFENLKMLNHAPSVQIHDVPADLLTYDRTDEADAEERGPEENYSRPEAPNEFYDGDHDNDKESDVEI
HDAC 3, sequence (Q9Y618 395-489 partner limits assumed, species assumed): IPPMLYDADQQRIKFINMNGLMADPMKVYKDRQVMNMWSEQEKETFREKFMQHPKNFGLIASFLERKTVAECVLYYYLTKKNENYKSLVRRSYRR

`C=C1CN(Cc2ccc(C(=O)Nc3ccccc3N)cc2)C(CC(=O)Nc2ccccc2N)c2ccccc21` (stereo not drawn) [Example 8, N-(2-Aminophenyl)-4-{[1-{2-[(2-aminophenyl)amino]-2-oxoethyl}-4-methylene-3,4-dihydroisoquinolin-2(1H)-yl]methyl}benzamide] showed a melting point of 135 to 137 °C. Besides, the IC50 on HDAC 3 came out at 0.35 µM. Moreover, the IC50 at HDAC 6 is above 10 µM.
`C=C1CN(Cc2ccc(C(=O)Nc3ccccc3N)cc2)C(CC#N)c2ccccc21` (stereo not drawn) [Example 6, N-(2-Aminophenyl)-4-{[1-(cyanomethyl)-4-methylene-3,4-dihydroisoquinolin-2(1H)-yl]methyl}benzamide] yielded a melting point of 93 to 95 °C. The half-inhibitory concentration (IC50) at HDAC 3 was found to be 0.31 µM. At HDAC 6, the IC50 is above 10 µM.
In turn, `C=C1CN(Cc2ccc(C(=O)Nc3ccccc3N)cc2)C(=O)c2ccc(C(=O)OC)cc21` [Example 13, Methyl 2-(4-{[(2-aminophenyl)amino]carbonyl}benzyl)-4-methylene-1-oxo-1,2,3,4-tetrahydroisoquinoline-6-carboxylate] returned a melting point of 196 to 198 °C. Moreover, the IC50 on HDAC 3 stood at 0.27 µM. The IC50 on HDAC 6 was above 10 µM.
`C=C1CN(Cc2ccc(C(=O)Nc3ccccc3N)cc2)C(CC(=O)NCCO)c2ccccc21` (stereo not drawn) [Example 10, N-(2-Aminophenyl)-4-{[1-{2-[(2-hydroxyethyl)amino]-2-oxoethyl}-4-methylene-3,4-dihydroisoquinolin-2(1H)-yl]methyl}-benzamide]: the IC50 was 0.67 µM on HDAC 3 and above 10 µM at HDAC 6.
As to `C=C1CN(Cc2ccc(C(=O)Nc3ccccc3N)cc2)C(=O)c2ccc(C(=O)NCCN)cc21` [Example 14, N-(2-Aminoethyl)-2-(4-{[(2-aminophenyl)amino]carbonyl}benzyl)-4-methylene-1-oxo-1,2,3,4-tetrahydroisoquinoline-6-carboxamide], the melting point is 172 to 174 °C (dec.). Further, at HDAC 3, the IC50 is 0.23 µM. On HDAC 6, the IC50 was above 10 µM.
In the same order, the values of `C=C1CN(Cc2ccc(C(=O)Nc3ccccc3N)cc2)C(CC(=O)OCC)c2ccccc21` (stereo not drawn) [Example 1, Ethyl [2-(4-{[(2-aminophenyl)amino]carbonyl}benzyl)-4-methylene-1,2,3,4-tetrahydroisoquinolin-1-yl]acetate] are 111 to 113 °C, 0.89 µM and above 10 µM.
Regarding `C=C1CN(S(=O)(=O)c2ccc(C(=O)Nc3ccccc3N)cc2)C(CC#N)c2ccccc21` (stereo not drawn) [Example 15], the melting point fell in the range of 213 to 215 °C. Also, the IC50 on HDAC 3 was 1.4 µM. Also, the IC50 on HDAC 6 is above 10 µM.
For `C=C1CN(Cc2ccc(C(=O)Nc3ccccc3N)cc2)C(CC(=O)OC)c2ccccc21` (stereo not drawn) [Example 3, Methyl [2-(4-{[(2-aminophenyl)amino]carbonyl}benzyl)-4-methylene-1,2,3,4-tetrahydroisoquinolin-1-yl]acetate], in that order: 151 to 153 °C, 0.98 µM and above 10 µM.
In the same order, the values of `C=C1CN(Cc2ccc(C(=O)Nc3ccccc3N)cc2)C(CC(=O)N2CCCCC2)c2ccccc21` (stereo not drawn) [Example 2, N-(2-Aminophenyl)-4-{[4-methylene-1-(2-oxo-2-piperidin-1-ylethyl)-3,4-dihydroisoquinolin-2(1H)-yl]methyl}benzamide] are 89 to 91 °C, 0.51 µM and above 10 µM.
Turning to `C=C1CN(Cc2ccc(C(=O)Nc3ccccc3N)cc2)C(CC(=O)N2CCN(C)CC2)c2ccccc21` (stereo not drawn) [Example 11, N-(2-Aminophenyl)-4-{[4-methylene-1-[2-(4-methylpiperazin-1-yl)-2-oxoethyl]-3,4-dihydroisoquinolin-2(1H)-yl]methyl}benzamide], the IC50 was 0.56 µM at HDAC 3 and above 10 µM at HDAC 6.
Regarding `C=C1CN(Cc2ccc(C(=O)Nc3ccccc3N)cc2)C(CC(=O)c2ccccc2)c2ccccc21` (stereo not drawn) [Example 5, N-(2-Aminophenyl)-4-{[4-methylene-1-(2-oxo-2-phenylethyl)-3,4-dihydroisoquinolin-2(1H)-yl]methyl}benzamide], the figures for the IC50 on HDAC 3 and on HDAC 6 were 2.7 µM and above 10 µM, respectively.
In the case of `C=C1CN(Cc2ccc(C(=O)Nc3ccccc3N)cc2)C(CC(=O)N2CCOCC2)c2ccccc21` (stereo not drawn) [Example 4], the melting point lay in the range of 99 to 101 °C. The IC50 at HDAC 3 was 0.26 µM. Further, the IC50 on HDAC 6 is above 10 µM.

One may read the IC50 as the concentration that gives 50% inhibition. A word on the melting point: it is the temperature of the solid-liquid transition.
